According to patent US7960408B2, “Quinolinyl and benzothiazolyl modulators” (Amgen Inc., priority 2000, dated 2011):
pIC50: −log10 of the molar value.

Biological target: T1, PPARγ (Homo sapiens, UniProt P37231)
T1 construct: made in house
T1 sequence (P37231 1-505): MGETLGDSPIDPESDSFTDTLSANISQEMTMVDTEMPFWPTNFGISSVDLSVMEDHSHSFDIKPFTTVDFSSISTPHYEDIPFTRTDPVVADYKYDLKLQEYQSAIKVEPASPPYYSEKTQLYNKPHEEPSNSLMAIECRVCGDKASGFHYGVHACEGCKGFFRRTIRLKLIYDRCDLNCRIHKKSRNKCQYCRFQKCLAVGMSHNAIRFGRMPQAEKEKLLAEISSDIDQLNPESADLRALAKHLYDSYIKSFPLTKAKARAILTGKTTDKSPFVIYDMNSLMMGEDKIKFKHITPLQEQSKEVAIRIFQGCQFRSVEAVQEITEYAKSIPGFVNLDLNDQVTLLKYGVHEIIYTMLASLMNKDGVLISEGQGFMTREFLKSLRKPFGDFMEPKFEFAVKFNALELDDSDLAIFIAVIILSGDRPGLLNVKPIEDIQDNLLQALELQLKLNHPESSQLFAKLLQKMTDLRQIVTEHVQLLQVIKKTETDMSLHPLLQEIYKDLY
Assay: PPARγ ligand binding assay utilizing [3H]-BRL 49653 as the radioligand
Details: concentration required to reduce by 50% the specific binding of [3H]-BRL 49653
Source text: The compounds of the present invention can be evaluated for modulation of the PPARγ receptor using assays such as those described in Jiang, et al., Nature 391:82-86 (1998), Ricote, et al., Nature 391:79-82 (1998) and Lehmann, et al., J. Biol. Chem. 270(12): 12953-12956 (1995). Alternatively, the compounds can be evaluated for their ability to displace radiolabeled BRL 49653 from a PPARγ-GST fusion protein as follows:
PPARγ-GST fusion protein (prepared according to standard procedures), [^3H]—BRL 49653 having 50 Ci/mmol specific activity, Polyfiltronics Unifilter 350 filtration plate and glutathione-Sepharose® beads (from Pharmacia: washed twice with 10× binding buffer in which BSA and DTI can be left out).
Binding buffer (10 mM Tris-HCl, pH 8.0, 50 mM KCI, 10 mM DTT, 0.02% BSA and 0.01% NP-40) is added in 80-μL amounts to the wells of the filtration plate. The test compound is then added in 10 μL of DMSO. The PPARγ-GST fusion protein and radiolabeled BRL compound are premixed in binding buffer containing 10 mM DTT and added in 10-μL amounts to the wells of the plate to provide final concentrations of 1 μg/well of PPARγ-GST fusion protein and 10 nM [^3H]—BRL 49653 compound. The plate is incubated for 15 min. Glutathione-agarose bead is added in 50 μL of binding buffer, and the plate is vigorously shaken for one hour. The plate is washed four times with 200 μL/well of binding buffer (without BSA and DTT). The bottom of the plate is sealed and 200 μL/well of scintillation cocktail is added. The top of the plate is then sealed and the radioactivity is determined.
IC50 values are defined as the concentration of test compounds required to reduce by 50% the specific binding of [^3H]—BRL 49653 and are represented by (+) <30 μM; (++) <10 μM; (+++) <1 μM.

SMILES | pIC50
COc1cccc2sc(Oc3cc(Cl)cc(NS(=O)(=O)c4cc(C)c(Cl)cc4Cl)c3)nc12 [Compound 298, 2,4-Dichloro-N-[3-chloro-5-(4-methoxy-benzothiazol-2-yloxy)-phenyl]-5-methyl-benzenesulfonamide] | > 6.00
Cc1ccc2nc(Oc3cc(Cl)cc(NS(=O)(=O)c4ccc(C(F)(F)F)cc4Cl)c3)sc2c1 [Compound 299, 2-Chloro-N-[3-chloro-5-(6-methyl-benzothiazol-2-yloxy)-phenyl]-4-trifluoromethyl-benzenesulfonamide] | > 6.00
Cc1ccc2nc(Oc3cc(Cl)cc(NS(=O)(=O)c4ccc(Cl)cc4Cl)c3)sc2c1 [Compound 300, 2,4-Dichloro-N-[3-chloro-5-(6-methyl-benzothiazol-2-yloxy)-phenyl]-benzenesulfonamide] | > 6.00
Cc1ccc2nc(Oc3cc(Cl)cc(NS(=O)(=O)c4cc(C)c(Cl)cc4Cl)c3)sc2c1 [Compound 301, 2,4-Dichloro-N-[3-chloro-5-(6-methyl-benzothiazol-2-yloxy)-phenyl]-5-methyl-benzenesulfonamide] | > 6.00
O=S(=O)(Nc1cc(Cl)cc(Oc2nc3ccc(Cl)cc3s2)c1)c1ccc(C(F)(F)F)cc1Cl [Compound 302, 2-Chloro-N-[3-chloro-5-(6-chloro-benzothiazol-2-yloxy)-phenyl]-4-trifluoromethyl-benzenesulfonamide] | > 6.00
O=S(=O)(Nc1cc(Cl)cc(Oc2nc3ccc(Cl)cc3s2)c1)c1ccc(Cl)cc1Cl [Compound 303, 2,4-Dichloro-N-[3-chloro-5-(6-chloro-benzothiazol-2-yloxy)-phenyl]-benzenesulfonamide] | > 6.00
O=S(=O)(Nc1cc(Cl)cc(Oc2nc3ccc(F)cc3s2)c1)c1ccc(C(F)(F)F)cc1Cl [Compound 304, 2-Chloro-N-[3-chloro-5-(6-fluoro-benzothiazol-2-yloxy)-phenyl]-4-trifluoromethyl-benzenesulfonamide] | > 6.00
O=S(=O)(Nc1cc(Cl)cc(Oc2nc3ccc(F)cc3s2)c1)c1ccc(Cl)cc1Cl [Compound 305, 2,4-Dichloro-N-[3-chloro-5-(6-fluoro-benzothiazol-2-yloxy)-phenyl]-benzenesulfonamide] | > 6.00
Cc1cc(S(=O)(=O)Nc2cc(Cl)cc(Oc3nc4ccc(F)cc4s3)c2)c(Cl)cc1Cl [Compound 306, 2,4-Dichloro-N-[3-chloro-5-(6-fluoro-benzothiazol-2-yloxy)-phenyl]-5-methyl-benzenesulfonamide] | > 6.00
COc1ccc2nc(Oc3cc(Cl)cc(NS(=O)(=O)c4ccc(C(F)(F)F)cc4Cl)c3)sc2c1 [Compound 307, 2-Chloro-N-[3-chloro-5-(6-methoxy-benzothiazol-2-yloxy)-phenyl]-4-trifluoromethyl-benzenesulfonamide] | 5.00 to 6.00
COc1ccc2nc(Oc3cc(Cl)cc(NS(=O)(=O)c4ccc(Cl)cc4Cl)c3)sc2c1 [Compound 308, 2,4-Dichloro-N-[3-chloro-5-(6-methoxy-benzothiazol-2-yloxy)-phenyl]-benzenesulfonamide] | > 6.00
COc1ccc2nc(Oc3cc(Cl)cc(NS(=O)(=O)c4cc(C)c(Cl)cc4Cl)c3)sc2c1 [Compound 309, 2,4-Dichloro-N-[3-chloro-5-(6-methoxy-benzothiazol-2-yloxy)-phenyl]-5-methyl-benzenesulfonamide] | > 6.00

The next lines start with the values.

pIC50 | SMILES
> 6.00 | CCOC(=O)c1ccc2nc(Oc3cc(Cl)cc(NS(=O)(=O)c4ccc(C(F)(F)F)cc4Cl)c3)sc2c1 [Compound 310, 2-[3-Chloro-5-(2-chloro-4-trifluoromethyl-benzenesulfonylamino)-phenoxy]-benzothiazole-6-carboxylic acid ethyl ester]
> 6.00 | CCOC(=O)c1ccc2nc(Oc3cc(Cl)cc(NS(=O)(=O)c4ccc(C(F)(F)F)cc4Cl)c3)sc2c1 [Compound 311, 2-[3-Chloro-5-(2-chloro-4-trifluoromethyl-benzenesulfonylamino)-phenoxy]-benzothiazole-6-carboxylic acid ethyl ester]
5.00 to 6.00 | O=S(=O)(Nc1cc(Oc2nc3cc(Cl)ccc3s2)cc(Oc2nc3cc(Cl)ccc3s2)c1)c1ccc(C(F)(F)F)cc1Cl [Compound 322, N-[3,5-Bis-(5-chloro-benzothiazol-2-yloxy)-phenyl]-2-chloro-4-trifluoromethyl-benzenesulfonamide]
5.00 to 6.00 | O=S(=O)(Nc1cc(Oc2nc3cc(Cl)ccc3s2)cc(Oc2nc3cc(Cl)ccc3s2)c1)c1ccc(Cl)cc1Cl [Compound 323, N-[3,5-Bis-(5-chloro-benzothiazol-2-yloxy)-phenyl]-2,4-dichloro-benzenesulfonamide]
> 6.00 | Cc1cc(S(=O)(=O)Nc2cc(Oc3nc4cc(Cl)ccc4s3)cc(Oc3nc4cc(Cl)ccc4s3)c2)c(Cl)cc1Cl [Compound 324, N-[3,5-Bis-(5-chloro-benzothiazol-2-yloxy)-phenyl]-2,4-dichloro-5-methyl-benzenesulfonamide]
> 6.00 | O=S(=O)(Nc1cc(Cl)cc(Cc2nc3cc(Cl)ccc3s2)c1)c1ccc(C(F)(F)F)cc1Cl [Compound 331, 2-Chloro-N-[3-chloro-5-(5-chloro-benzothiazol-2-ylmethyl)-phenyl]-4-trifluoromethyl-benzenesulfonamide]
> 6.00 | O=S(=O)(Nc1cc(Cl)cc(Cc2nc3cc(Cl)ccc3s2)c1)c1ccc(Cl)cc1Cl [Compound 332, 2,4-Dichloro-N-[3-chloro-5-(5-chloro-benzothiazol-2-ylmethyl)-phenyl]-benzenesulfonamide]
> 6.00 | Cc1cc(S(=O)(=O)Nc2cc(Cl)cc(Cc3nc4cc(Cl)ccc4s3)c2)c(Cl)cc1Cl [Compound 333, 2,4-Dichloro-N-[3-chloro-5-(5-chloro-benzothiazol-2-ylmethyl)-phenyl]-5-methyl-benzenesulfonamide]
5.00 to 6.00 | O=S(=O)(Nc1cc(Cl)c(Oc2nc3c(Cl)cccc3s2)c(Cl)c1)c1ccc(C(F)(F)F)cc1Cl [Compound 424, 2-Chloro-N-[3,5-dichloro-4-(4-chloro-benzothiazol-2-yloxy)-phenyl]-4-trifluoromethyl-benzenesulfonamide]
5.00 to 6.00 | O=S(=O)(Nc1cc(Cl)c(Oc2nc3c(Cl)cccc3s2)c(Cl)c1)c1ccc(Cl)cc1Cl [Compound 425, 2,4-Dichloro-N-[3,5-dichloro-4-(4-chloro-benzothiazol-2-yloxy)-phenyl]-benzenesulfonamide]
> 6.00 | Cc1cc(S(=O)(=O)Nc2cc(Cl)c(Oc3nc4c(Cl)cccc4s3)c(Cl)c2)c(Cl)cc1Cl [Compound 426, 2,4-Dichloro-N-[3,5-dichloro-4-(4-chloro-benzothiazol-2-yloxy)-phenyl]-5-methyl-benzenesulfonamide]
> 6.00 | COc1cccc2sc(Oc3c(Cl)cc(NS(=O)(=O)c4ccc(C(F)(F)F)cc4Cl)cc3Cl)nc12 [Compound 427, 2-Chloro-N-[3,5-dichloro-4-(4-methoxy-benzothiazol-2-yloxy)-phenyl]-4-trifluoromethyl-benzenesulfonamide]
> 6.00 | COc1cccc2sc(Oc3c(Cl)cc(NS(=O)(=O)c4ccc(Cl)cc4Cl)cc3Cl)nc12 [Compound 428, 2,4-Dichloro-N-[3,5-dichloro-4-(4-methoxy-benzothiazol-2-yloxy)-phenyl]-benzenesulfonamide]
> 6.00 | COc1cccc2sc(Oc3c(Cl)cc(NS(=O)(=O)c4cc(C)c(Cl)cc4Cl)cc3Cl)nc12 [Compound 429, 2,4-Dichloro-N-[3,5-dichloro-4-(4-methoxy-benzothiazol-2-yloxy)-phenyl]-5-methyl-benzenesulfonamide]
> 6.00 | O=S(=O)(Nc1cc(Cl)c(Oc2nc3ccc(Cl)cc3s2)c(Cl)c1)c1ccc(Br)cc1OC(F)(F)F [Compound 433, 4-Bromo-N-[3,5-dichloro-4-(6-chloro-benzothiazol-2-yloxy)-phenyl]-2-trifluoromethoxy-benzenesulfonamide]
5.00 to 6.00 | O=S(=O)(Nc1cc(Cl)c(Oc2nc3ccc(Cl)cc3s2)c(Cl)c1)c1ccc(OC(F)(F)F)cc1 [Compound 434, N-[3,5-Dichloro-4-(6-chloro-benzothiazol-2-yloxy)-phenyl]-4-trifluoromethoxy-benzenesulfonamide]
